# Measured values: ChEMBL document CHEMBL1201862, “PubChem BioAssay data set” (2004)
# The source made the active and inactive calls.
# Experiments:
# cells [1] = format: functional, cell-based
# [2] = target: T1, Trace amine-associated receptor 1 (Homo sapiens, UniProt Q96RJ0); test: Counterscreen for agonists of the human trace amine associated receptor 1 (hTAAR1): Fluorescence-based cell-based high throughput dose response assay to identify hTAAR1 agonist that also desensitize TAAR1 receptor response.; format: functional
# T1 sequence (Q96RJ0 whole entry): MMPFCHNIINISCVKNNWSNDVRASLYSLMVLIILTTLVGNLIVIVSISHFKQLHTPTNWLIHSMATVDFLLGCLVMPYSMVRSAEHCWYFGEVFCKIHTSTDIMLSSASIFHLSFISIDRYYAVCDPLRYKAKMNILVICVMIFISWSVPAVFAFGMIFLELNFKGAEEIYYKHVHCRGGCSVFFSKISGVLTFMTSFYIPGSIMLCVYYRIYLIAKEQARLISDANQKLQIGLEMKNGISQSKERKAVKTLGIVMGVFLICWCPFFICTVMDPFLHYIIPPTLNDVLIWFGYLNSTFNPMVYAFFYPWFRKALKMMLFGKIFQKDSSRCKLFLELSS
# [3] = target: T1, Trace amine-associated receptor 1; test: Fluorescence-based cell-based high throughput dose response assay to identify agonists of the human trace amine associated receptor 1 (TAAR1).; format: functional
# cells [4] = format: functional, cell-based; remark: listed apart in the source
# [5] = target: T2, Methionyl-tRNA synthetase, putative (Trypanosoma brucei brucei, UniProt Q38C91); format: functional, Trypanosoma brucei brucei strain 927/4 GUTat10.1;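 note: Read-out by fluorescence polarization, run as a confirmatory high-throughput counterscreen; potency of MetRS inhibitors measured by reduced AMP formation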
# T2 sequence (Q38C91 whole entry): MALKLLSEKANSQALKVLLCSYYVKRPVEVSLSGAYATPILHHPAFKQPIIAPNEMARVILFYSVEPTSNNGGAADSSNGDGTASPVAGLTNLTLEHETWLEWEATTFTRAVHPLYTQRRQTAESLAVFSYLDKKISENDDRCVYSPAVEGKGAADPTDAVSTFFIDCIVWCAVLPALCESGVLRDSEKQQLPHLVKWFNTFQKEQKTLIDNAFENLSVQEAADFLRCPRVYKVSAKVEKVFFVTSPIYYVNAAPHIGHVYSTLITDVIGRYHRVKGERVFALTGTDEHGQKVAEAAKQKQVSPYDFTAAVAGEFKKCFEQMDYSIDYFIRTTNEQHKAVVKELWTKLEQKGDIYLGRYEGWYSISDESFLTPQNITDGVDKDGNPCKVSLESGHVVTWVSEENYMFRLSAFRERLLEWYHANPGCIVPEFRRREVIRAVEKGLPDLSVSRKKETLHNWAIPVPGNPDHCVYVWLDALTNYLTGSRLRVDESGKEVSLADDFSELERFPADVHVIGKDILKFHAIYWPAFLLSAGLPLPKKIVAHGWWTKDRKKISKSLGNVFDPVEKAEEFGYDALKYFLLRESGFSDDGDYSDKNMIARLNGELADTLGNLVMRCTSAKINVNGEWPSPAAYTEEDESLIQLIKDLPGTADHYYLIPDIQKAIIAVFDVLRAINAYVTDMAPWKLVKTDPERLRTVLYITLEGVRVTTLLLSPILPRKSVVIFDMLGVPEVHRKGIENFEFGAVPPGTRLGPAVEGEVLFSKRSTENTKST
# [6] = Counterscreen for inhibitors of Trypanosoma brucei methionyl tRNA synthetase (MetRS): Luminescence-based cell-based high throughput dose response assay to identify compounds that are cytotoxic to Jurkat human T lymphocyte cells.; format: functional
# [7] = HIV-1 AD8 envelope cell-cell fusion blockers – cherry-pick, dose response (AID 652062); format: functional, cell-based;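 note: luciferase signal from cell-cell fusion driven by HIV-1 clade B AD8 Env; potency is for inhibitors of fusion seen as a drop in luminescence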
# [8] = viability loss in CEM21 cells – cell-based, CellTiter-Glo luminescence, cherry-picked, cytotoxicity control for viral fusion inhibitor project, dose response (AID 652042); format: functional;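 note: potency for signal decrease meaning cytotoxicity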
# [9] = blockers of HIV-1 ZM109 envelope-driven cell-cell fusion – HeLa effector, CEM target cells, luciferase, cherry-pick, dose response (AID 652058); format: functional, cell-based;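 note: luciferase signal from HIV-1 Env mediated cell-cell fusion of effector and target cells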
# [10] = blockers of HIV-1 envelope-mediated cell-cell fusion – cherry-pick, dose response (AID 652057); format: functional, cell-based
# [11] = off-target signal loss in HeLa-CEM21 co-culture – HeLa F-luc CTL cells, cherry-picked, counter-screen for HIV-1 Env fusion inhibitor project, dose response (AID 652040); format: functional, cell-based;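 note: potency for signal decrease marking cytotoxic or nonspecific inhibition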
# HEK293 = test: EBV LMP1 TES2 canonical NF-kB signalling blockers – cell-based, HEK293, luciferase, cherry-pick, dose response (AID 588343); format: functional; conditions: Homo sapiens
# Streptococcus = test: GAS UMAA2166 growth inhibition – luminescence, BacTiterGlo, counter-screen for streptokinase expression inhibitor project, dose response (AID 1915); format: functional, organism-based;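 note: potency for reduction of bacterial viability or growth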
# [12] = target: T3, Heat shock factor protein 1 (Mus musculus, UniProt P38532); test: decrease of HSF1-responsive luciferase luminescence – cell-based, NIH3T3, dose retest, confirmation (AID 2382); format: functional;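 note: NIH3T3 fibroblasts with HSF1-driven luciferase reporter stressed by proteasome inhibitor MG132; luminescence from HSF1-driven luciferase expression after 8 hours of MG132 stress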
# T3 sequence (P38532 whole entry): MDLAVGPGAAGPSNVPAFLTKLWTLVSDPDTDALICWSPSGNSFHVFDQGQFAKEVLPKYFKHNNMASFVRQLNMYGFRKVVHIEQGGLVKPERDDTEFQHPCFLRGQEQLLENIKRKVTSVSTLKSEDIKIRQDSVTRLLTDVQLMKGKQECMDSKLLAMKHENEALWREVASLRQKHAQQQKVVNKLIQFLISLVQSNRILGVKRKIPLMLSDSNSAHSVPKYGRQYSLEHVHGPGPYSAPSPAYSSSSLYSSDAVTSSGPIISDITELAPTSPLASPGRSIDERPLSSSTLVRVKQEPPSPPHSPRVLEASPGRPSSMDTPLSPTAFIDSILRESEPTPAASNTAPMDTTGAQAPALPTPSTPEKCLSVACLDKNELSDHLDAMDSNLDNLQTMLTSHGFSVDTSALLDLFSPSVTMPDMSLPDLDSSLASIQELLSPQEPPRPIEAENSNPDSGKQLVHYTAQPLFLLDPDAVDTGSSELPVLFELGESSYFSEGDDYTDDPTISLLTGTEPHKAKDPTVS
# Streptokinase A = target: T4, Streptokinase A (Streptococcus pyogenes serotype M1, UniProt P10520); test: viability-normalized secreted streptokinase activity reduction – plasminogen activation absorbance, OD405, dose response (AID 1914); format: functional, Streptococcus pyogenes M1 GAS;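 note: secreted streptokinase activity via plasminogen activation per viability signal from cell pellet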
# T4 sequence (P10520 whole entry): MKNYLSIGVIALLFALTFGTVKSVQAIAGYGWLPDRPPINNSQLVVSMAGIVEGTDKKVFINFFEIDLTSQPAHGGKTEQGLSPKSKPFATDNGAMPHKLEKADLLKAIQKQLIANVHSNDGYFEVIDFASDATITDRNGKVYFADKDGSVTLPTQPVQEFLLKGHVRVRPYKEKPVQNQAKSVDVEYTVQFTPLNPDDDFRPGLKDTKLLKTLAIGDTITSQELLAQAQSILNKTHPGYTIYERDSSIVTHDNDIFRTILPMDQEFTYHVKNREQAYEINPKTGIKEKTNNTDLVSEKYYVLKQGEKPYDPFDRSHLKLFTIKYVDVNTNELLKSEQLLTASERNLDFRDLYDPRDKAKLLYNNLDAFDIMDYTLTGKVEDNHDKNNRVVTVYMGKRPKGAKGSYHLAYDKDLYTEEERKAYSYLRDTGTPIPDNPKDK
# [13] = system: Streptococcus sp. 'group A'; test: Streptococcus pyogenes SK(-)GAS viability under kanamycin – luminescence, BacTiterGlo, confirmation, counter-screen for streptokinase expression inhibitor project, dose response (AID 1900); format: functional, organism-based
# Genome polyprotein = Genome polyprotein (dengue virus type 2, UniProt P29990); test: flavivirus cap methylation enzyme inhibition – biochemical, confirmation dose response, primary screen (AID 588689); format: functional
# [14] = target: T5, Long-chain-fatty-acid--AMP ligase FadD28 (Mycobacterium tuberculosis, UniProt P9WQ59); test: Fluorescence polarization aasay to screen for inhibitors that compete for the binding of FadD28 to a bisubstrate Measured in Biochemical System Using Plate Reader - 2147-01_Inhibitor_Dose_CherryPick_Activity.; format: functional, Mycobacterium tuberculosis H37Rv
# T5 sequence (P9WQ59 whole entry): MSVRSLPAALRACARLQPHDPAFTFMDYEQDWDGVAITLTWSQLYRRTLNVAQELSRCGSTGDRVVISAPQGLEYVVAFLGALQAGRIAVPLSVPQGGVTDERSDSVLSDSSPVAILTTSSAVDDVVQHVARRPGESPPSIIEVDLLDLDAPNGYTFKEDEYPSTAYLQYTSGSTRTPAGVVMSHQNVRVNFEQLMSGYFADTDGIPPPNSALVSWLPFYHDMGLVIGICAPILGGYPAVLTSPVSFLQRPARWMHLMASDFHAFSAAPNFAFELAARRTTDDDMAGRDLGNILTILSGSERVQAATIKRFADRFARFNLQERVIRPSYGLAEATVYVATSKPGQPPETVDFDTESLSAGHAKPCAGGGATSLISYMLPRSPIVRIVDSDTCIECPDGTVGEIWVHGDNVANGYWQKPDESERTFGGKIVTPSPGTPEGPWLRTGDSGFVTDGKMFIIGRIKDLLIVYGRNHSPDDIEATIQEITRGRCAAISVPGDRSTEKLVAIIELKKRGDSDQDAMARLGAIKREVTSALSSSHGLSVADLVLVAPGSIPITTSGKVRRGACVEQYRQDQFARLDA
# [15] = blockers of bursicon-stimulated LGR2 cAMP reporter – cell-based, HEK293, CRE-luciferase reporter, cherry pick, set 2, dose response (AID 743343); format: functional;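 note: transfected cells were stimulated with diluted bursicon conditioned medium after compound addition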
# [16] = blockade of melanocortin 4 receptor signaling – cell-based, plate reader, cherry pick, counter-screen for LGR2 antagonist project, dose response (AID 743444); format: functional;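 note: transfected HEK 293 cells stimulated with alpha-MSH peptide; potency of inhibitors of the alpha-MSH evoked signal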
# [17] = intracellular Trypanosoma cruzi inhibitors in host cells – cell-based, plate reader, cherry-pick samples, set 3, dose response (AID 651818); format: functional;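 note: compounds incubated with infected cells for about four days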
# [18] = A549 cell cytotoxicity, dose response, cytotoxicity control, plate reader, cherry-pick, antagonist series (AID 743412); format: functional, cell-based
# [19] = toxicity toward HepG2 liver cells – cell-based, plate reader, cherry-pick, antagonist series, cytotoxicity control, dose response (AID 743416); format: functional
# [20] = OVCAR8 cell viability loss – plate reader, dry powder samples, PAX8 project, dose response (AID 743197); format: functional, cell-based; conditions: OVCAR-8
# [21] = OVCAR-3 cell viability loss – plate reader, dry powder samples, PAX8 inhibitor project, dose response (AID 743044); format: functional, cell-based
# Paired box protein Pax-8 = Paired box protein Pax-8 (Homo sapiens, UniProt Q06710); test: PAX8 transcriptional activity inhibition in RMG-I – RMG-I cells, luciferase, cherry-pick, dose response (AID 687027); format: functional, cell-based;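 note: luciferase reporter driven by Pax8 target thyroperoxidase promoter measured by SteadyGlo luminescence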
# [22] = IGROV1 cell killing – plate reader, dry powder samples, PAX8 inhibitor project, dose response (AID 743043); format: functional, cell-based; conditions: IGROV-1
# Paired box protein Pax-8, sequence (Q06710 whole entry): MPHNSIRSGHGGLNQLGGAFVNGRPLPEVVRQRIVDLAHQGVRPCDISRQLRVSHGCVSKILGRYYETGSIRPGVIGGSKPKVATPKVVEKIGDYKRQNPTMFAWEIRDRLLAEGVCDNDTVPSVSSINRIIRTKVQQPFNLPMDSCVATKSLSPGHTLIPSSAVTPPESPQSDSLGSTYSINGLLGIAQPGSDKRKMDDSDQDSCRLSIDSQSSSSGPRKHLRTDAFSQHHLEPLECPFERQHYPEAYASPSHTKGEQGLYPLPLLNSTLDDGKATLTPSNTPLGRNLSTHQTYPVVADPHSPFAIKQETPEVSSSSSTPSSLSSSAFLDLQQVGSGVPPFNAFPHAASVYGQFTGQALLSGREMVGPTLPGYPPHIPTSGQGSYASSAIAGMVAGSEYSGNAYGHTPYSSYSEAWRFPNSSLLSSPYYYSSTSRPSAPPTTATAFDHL
# Genome polyprotein, sequence (P29990 2492-3391 limits assumed): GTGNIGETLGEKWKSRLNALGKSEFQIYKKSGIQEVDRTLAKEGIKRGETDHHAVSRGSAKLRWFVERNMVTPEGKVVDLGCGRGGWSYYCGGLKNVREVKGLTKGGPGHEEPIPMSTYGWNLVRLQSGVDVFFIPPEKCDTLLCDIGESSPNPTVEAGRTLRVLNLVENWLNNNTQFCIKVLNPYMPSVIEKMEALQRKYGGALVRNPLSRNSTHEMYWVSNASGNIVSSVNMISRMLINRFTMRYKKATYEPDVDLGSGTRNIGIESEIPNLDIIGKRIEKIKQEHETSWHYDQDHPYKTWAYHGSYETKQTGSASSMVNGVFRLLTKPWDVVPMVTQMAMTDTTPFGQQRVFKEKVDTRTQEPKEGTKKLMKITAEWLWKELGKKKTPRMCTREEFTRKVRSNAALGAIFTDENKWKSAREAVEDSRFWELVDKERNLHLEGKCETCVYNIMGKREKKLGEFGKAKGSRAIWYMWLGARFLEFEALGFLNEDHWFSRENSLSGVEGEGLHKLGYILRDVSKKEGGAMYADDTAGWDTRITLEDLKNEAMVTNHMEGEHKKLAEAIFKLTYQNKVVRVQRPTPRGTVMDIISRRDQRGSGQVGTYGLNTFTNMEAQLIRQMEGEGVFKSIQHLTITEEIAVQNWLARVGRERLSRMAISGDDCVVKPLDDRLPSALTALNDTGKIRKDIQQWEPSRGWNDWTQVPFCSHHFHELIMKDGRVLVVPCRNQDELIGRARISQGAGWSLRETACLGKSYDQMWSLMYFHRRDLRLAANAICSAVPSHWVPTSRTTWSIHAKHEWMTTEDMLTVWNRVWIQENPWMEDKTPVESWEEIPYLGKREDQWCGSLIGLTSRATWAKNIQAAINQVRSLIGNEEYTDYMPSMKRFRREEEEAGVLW
smiles,measurement,setting,value
Cc1ccc(SCC(=O)Nc2ccc(N3CCN(C)CC3)c(F)c2)c(C)c1,EC50,cells [1],> 29.9 µM (inactive)
same,IC50,[2],5.55 µM (active)
same,EC50,[3],3.5 µM (active)
same,IC50,cells [4],> 29.9 µM (inactive)
O=C(Nc1cccnc1)c1ccc(COc2cc(Cl)ccc2Cl)o1,IC50,[5],23.5 µM (inactive)
same,IC50,[6],12.8 µM (inactive)
O=S(=O)(NCC(Nc1ccccc1)c1ccccc1)c1ccc(Cl)cc1 (stereo unspecified),AC50,[7],34.8 µM (active)
same,AC50,[8],19 µM (active)
same,AC50,[9],2.15 µM (active)
same,AC50,[10],2.48 µM (active)
same,AC50,[11],10.4 µM (active)
CCOC(=O)C(NCCc1ccccc1F)(NC(C)=O)C(F)(F)F (stereo unspecified),EC50,cells [1],> 29.9 µM (inactive)
same,IC50,[2],> 29.9 µM (inactive)
same,EC50,[3],1.84 µM (active)
same,IC50,cells [4],> 29.9 µM (inactive)
C[C@H](NC(=O)c1ccccc1)C(=O)OCC(=O)c1c[nH]c2ccccc12,EC50,cells [1],> 29.9 µM (inactive)
same,IC50,[2],7.13 µM (active)
same,EC50,[3],3.28 µM (active)
same,IC50,cells [4],> 29.9 µM (inactive)
Cc1cc(C)c(CN2CCN(C(=O)Cn3ccc(NC(=O)OCc4ccccc4)nc3=O)CC2)c(C)c1,AC50,[7],4.37 µM (active)
same,AC50,[8],26.8 µM (active)
same,AC50,[11],> 70 µM (inactive)
O=C(O)CN1C(=O)/C(=C\c2ccccc2OCc2ccc(Cl)cc2Cl)SC1=S,AC50,HEK293,12.7 µM (active)
same,EC50,Streptococcus,32.4 µM (active)
same,EC50,[12],2.58 µM (active)
same,EC50,Streptokinase A,17.9 µM (inconclusive)
same,EC50,[13],4.28 µM (active)
same,IC50,Genome polyprotein,87.6 µM (active)
Cc1csc(NC(=O)CSc2nnc(NC(=O)NC(C)(C)C)s2)n1,AC50,[14],> 100 µM (inactive)
CCC1=NN(C(=O)c2ccccc2Br)C(O)(c2ccc(Br)cc2)C1 (stereo unspecified),AC50,[14],> 100 µM (inactive)
CC(C)c1ccc(N(C(=O)c2csnn2)C(C(=O)NC2CCCC2)c2ccncc2)cc1 (stereo unspecified),AC50,[7],1.76 µM (active)
same,AC50,[8],60.5 µM (active)
same,AC50,[9],0.654 µM (active)
same,AC50,[10],0.795 µM (active)
same,AC50,[11],1.59 µM (active)
C[C@H](CO)N1C[C@H](C)[C@H](CN(C)Cc2ccc(C(F)(F)F)cc2)Oc2ccc(NC(=O)Nc3ccc(F)cc3)cc2C1=O,AC50,[15],33.1 µM (active)
same,AC50,[16],26.4 µM (active)
same,AC50,[17],5.6 µM (active)
same,AC50,[18],23.1 µM (active)
same,AC50,[19],28 µM (active)
COc1ccccc1CCn1cnc(-c2ccc(Br)cc2)c1CC(C)C,EC50,cells [1],> 29.9 µM (inactive)
same,IC50,[2],7.08 µM (active)
same,EC50,[3],1.75 µM (active)
same,IC50,cells [4],25.7 µM (inactive)
C[C@@H]1CN([C@@H](C)CO)C(=O)Cc2cc(NS(=O)(=O)c3ccc(F)cc3)ccc2O[C@H]1CN(C)Cc1ccc(C(F)(F)F)cc1,AC50,[20],26.9 µM (active)
same,AC50,[21],19.7 µM (active)
same,AC50,Paired box protein Pax-8,4.76 µM (active)
same,AC50,[22],29.2 µM (active)
O=C(C[C@H]1C[C@@H]2c3cc(NC(=O)Nc4ccc(C(F)(F)F)cc4)ccc3O[C@@H]2[C@@H](CO)O1)NCc1ccc(Cl)cc1,AC50,[21],61.1 µM (active)
same,AC50,Paired box protein Pax-8,7.85 µM (active)
same,AC50,[22],40.9 µM (active)
